Measured values: the supplement of paper PMC10307832

Key:
Assay in all cases: relative viability (nuclei count vs DMSO), 5 days (fraction); higher = more cells survive
[1] = compound: CC(C)C[C@H](NC(=O)[C@H](Cc1ccccc1)NC(=O)c1cnccn1)B(O)O [Bortezomib] + O=C(CCCCCCC(=O)Nc1ccccc1)NO [Vorinostat] (partner 1 µM)
Summary of the method: (§1)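 Lung cancer cell lines, seeded in 1536-well plates, were treated the following day by pin tool with a single drug or with five library-drug doses (not always all listed) in √10 steps on top of a fixed anchor-drug dose. Cells were fixed and nuclei stained in one step after 5 days, and nuclei were counted. Relative viability is the nuclei count for treated wells divided by that for vehicle wells, reported as medians of duplicate plates.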

[2] = compound: CC1=CC(=NN1)NC2=CC(=NC(=N2)/C=C/C3=CC=CC=C3)N4CCN(CC4)C + COc1cccc2cc(-c3nc([C@H]4CC[C@H](C(=O)O)CC4)n4ncnc(N)c34)[nH]c12 [OSI-027] (partner 0.5 µM)
Summary of the method: as §1

[3] = compound: CC1=CC(=NN1)NC2=CC(=NC(=N2)/C=C/C3=CC=CC=C3)N4CCN(CC4)C + O=C(CCCCCCC(=O)Nc1ccccc1)NO [Vorinostat] (partner 1 µM)
Summary of the method: as §1

[4] = compound: COC1=CC(c2cc3ccccc3[nH]2)=N/C1=C\c1[nH]c(C)cc1C [Obatoclax] + Cc1nc(NC(=O)N2CCC[C@H]2C(N)=O)sc1-c1ccnc(C(C)(C)C(F)(F)F)c1 [Alpelisib] (partner 2 µM)
Summary of the method: as §1

**Q.** With NCI-H650 as the cell line, how does the relative viability ([1]; first compound 0.0002 µM) read?
**A.** The relative viability was 0.395.

**Q.** What about the relative viability ([1]; first compound 0.000632 µM) of the same cell line?
**A.** Its relative viability is 0.566.

**Q.** What about the relative viability ([1]; first compound 0.002 µM) of the same cell line?
**A.** Its relative viability is 0.452.

**Q.** And the relative viability ([1]; first compound 0.006325 µM)?
**A.** The relative viability was 0.429.

**Q.** And the relative viability ([1]; first compound 0.02 µM)?
**A.** The relative viability was 0.121.

**Q.** And the relative viability ([2]; first compound 0.253 µM)?
**A.** Its relative viability is 0.597.

**Q.** What about the relative viability ([2]; first compound 0.8 µM) of the same cell line?
**A.** Its relative viability is 0.575.

**Q.** What about the relative viability ([2]; first compound 2.53 µM) of the same cell line?
**A.** Its relative viability is 0.47.

**Q.** And the relative viability ([2]; first compound 8 µM)?
**A.** Its relative viability is 0.172.

**Q.** And the relative viability ([3]; first compound 0.08 µM)?
**A.** The relative viability was 0.412.

**Q.** And the relative viability ([3]; first compound 0.253 µM)?
**A.** The relative viability was 0.717.

**Q.** And the relative viability ([3]; first compound 0.8 µM)?
**A.** Its relative viability is 0.495.

**Q.** What about the relative viability ([3]; first compound 2.53 µM) of the same cell line?
**A.** The relative viability was 0.409.

**Q.** What about the relative viability ([3]; first compound 8 µM) of the same cell line?
**A.** The relative viability was 0.174.

**Q.** What about the relative viability ([4]; first compound 0.01 µM) of the same cell line?
**A.** The relative viability was 0.975.

**Q.** And the relative viability ([4]; first compound 0.03162 µM)?
**A.** Its relative viability is 1.1.

**Q.** And the relative viability ([4]; first compound 0.1 µM)?
**A.** The relative viability was 0.811.

**Q.** What about the relative viability ([4]; first compound 0.3162 µM) of the same cell line?
**A.** Its relative viability is 0.693.

**Q.** And the relative viability ([4]; first compound 1 µM)?
**A.** The relative viability was 0.446.
